What was measured:
Experiment in all cases: Protein kinase selectivity panel
Assay type in all cases: biochemical
Settings in all cases: 1.0 μM compound, 10 μM ATP
[1] = target: T1, CHK1(h) (Homo sapiens, UniProt O14757)
T1 sequence (O14757 1-476): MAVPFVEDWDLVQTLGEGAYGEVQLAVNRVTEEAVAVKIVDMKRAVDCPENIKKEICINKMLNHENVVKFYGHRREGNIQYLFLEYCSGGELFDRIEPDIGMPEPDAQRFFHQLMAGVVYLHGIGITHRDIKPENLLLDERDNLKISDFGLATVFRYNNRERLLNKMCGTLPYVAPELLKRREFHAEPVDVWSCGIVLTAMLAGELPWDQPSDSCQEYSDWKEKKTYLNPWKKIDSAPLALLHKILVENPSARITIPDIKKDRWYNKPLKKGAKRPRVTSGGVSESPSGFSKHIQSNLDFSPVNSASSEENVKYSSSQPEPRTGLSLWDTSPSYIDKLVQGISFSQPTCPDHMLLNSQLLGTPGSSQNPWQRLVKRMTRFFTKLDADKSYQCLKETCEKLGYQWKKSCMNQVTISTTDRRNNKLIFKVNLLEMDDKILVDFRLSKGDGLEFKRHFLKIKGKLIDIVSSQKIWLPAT
Method in brief: (§1)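 Read-out is phosphorylation of the kinase's appropriate peptide/protein substrate, with and without 1.0 μM test compound. Assays used 10 μM ATP.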

[2] = target: CK1δ(h) (Homo sapiens, UniProt P48730)
Method in brief: as §1

[3] = target: JNK1α1(h) (Homo sapiens, UniProt P45983)
Method in brief: as §1

[4] = target: PDGFRα(h) (Homo sapiens, UniProt P16234)
Method in brief: as §1

[5] = target: PRK2(h) (Homo sapiens, UniProt Q16513)
Method in brief: as §1

[6] = target: CHK2(h) (Homo sapiens, UniProt O96017)
Method in brief: as §1

[7] = target: EGFR(h) (Homo sapiens, UniProt P00533)
Method in brief: as §1

[8] = target: Abl(h) (Homo sapiens, UniProt P00519)
Method in brief: as §1

[9] = target: Rsk3(h) (Homo sapiens, UniProt Q15349)
Method in brief: as §1

[10] = target: T2, PKCζ(h) (Homo sapiens, UniProt Q05513)
T2 sequence (Q05513 1-592): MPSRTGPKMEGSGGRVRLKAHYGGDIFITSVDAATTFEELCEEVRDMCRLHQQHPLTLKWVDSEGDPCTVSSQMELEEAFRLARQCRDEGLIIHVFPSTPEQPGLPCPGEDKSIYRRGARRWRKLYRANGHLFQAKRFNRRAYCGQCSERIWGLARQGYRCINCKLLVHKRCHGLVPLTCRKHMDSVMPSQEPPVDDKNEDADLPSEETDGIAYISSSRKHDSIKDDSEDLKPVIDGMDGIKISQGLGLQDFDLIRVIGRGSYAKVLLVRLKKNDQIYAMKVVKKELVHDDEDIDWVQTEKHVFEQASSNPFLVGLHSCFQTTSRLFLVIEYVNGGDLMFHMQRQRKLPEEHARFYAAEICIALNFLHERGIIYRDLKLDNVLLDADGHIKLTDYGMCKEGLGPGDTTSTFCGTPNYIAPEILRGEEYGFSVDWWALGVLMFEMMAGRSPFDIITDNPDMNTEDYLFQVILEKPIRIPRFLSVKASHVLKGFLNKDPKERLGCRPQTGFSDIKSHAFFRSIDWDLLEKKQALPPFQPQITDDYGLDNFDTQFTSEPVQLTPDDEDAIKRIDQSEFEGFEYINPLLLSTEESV
Method in brief: as §1

[11] = target: Fyn(h) (Homo sapiens, UniProt P06241)
Method in brief: as §1

[12] = target: PKCθ(h) (Homo sapiens, UniProt Q04759)
Method in brief: as §1

[13] = target: Ros(h) (Homo sapiens, UniProt P08922)
Method in brief: as §1

[14] = target: PKCγ(h) (Homo sapiens, UniProt P05129)
Method in brief: as §1

[15] = target: Lyn(m) (Mus musculus, UniProt P25911)
Method in brief: as §1

[16] = target: cSRC(h) (Homo sapiens, UniProt P12931)
Method in brief: as §1

[17] = target: CDK5/p35(h) (Homo sapiens, UniProt Q00535)
Method in brief: as §1

Sequence of Ros(h) (P08922 28-2347): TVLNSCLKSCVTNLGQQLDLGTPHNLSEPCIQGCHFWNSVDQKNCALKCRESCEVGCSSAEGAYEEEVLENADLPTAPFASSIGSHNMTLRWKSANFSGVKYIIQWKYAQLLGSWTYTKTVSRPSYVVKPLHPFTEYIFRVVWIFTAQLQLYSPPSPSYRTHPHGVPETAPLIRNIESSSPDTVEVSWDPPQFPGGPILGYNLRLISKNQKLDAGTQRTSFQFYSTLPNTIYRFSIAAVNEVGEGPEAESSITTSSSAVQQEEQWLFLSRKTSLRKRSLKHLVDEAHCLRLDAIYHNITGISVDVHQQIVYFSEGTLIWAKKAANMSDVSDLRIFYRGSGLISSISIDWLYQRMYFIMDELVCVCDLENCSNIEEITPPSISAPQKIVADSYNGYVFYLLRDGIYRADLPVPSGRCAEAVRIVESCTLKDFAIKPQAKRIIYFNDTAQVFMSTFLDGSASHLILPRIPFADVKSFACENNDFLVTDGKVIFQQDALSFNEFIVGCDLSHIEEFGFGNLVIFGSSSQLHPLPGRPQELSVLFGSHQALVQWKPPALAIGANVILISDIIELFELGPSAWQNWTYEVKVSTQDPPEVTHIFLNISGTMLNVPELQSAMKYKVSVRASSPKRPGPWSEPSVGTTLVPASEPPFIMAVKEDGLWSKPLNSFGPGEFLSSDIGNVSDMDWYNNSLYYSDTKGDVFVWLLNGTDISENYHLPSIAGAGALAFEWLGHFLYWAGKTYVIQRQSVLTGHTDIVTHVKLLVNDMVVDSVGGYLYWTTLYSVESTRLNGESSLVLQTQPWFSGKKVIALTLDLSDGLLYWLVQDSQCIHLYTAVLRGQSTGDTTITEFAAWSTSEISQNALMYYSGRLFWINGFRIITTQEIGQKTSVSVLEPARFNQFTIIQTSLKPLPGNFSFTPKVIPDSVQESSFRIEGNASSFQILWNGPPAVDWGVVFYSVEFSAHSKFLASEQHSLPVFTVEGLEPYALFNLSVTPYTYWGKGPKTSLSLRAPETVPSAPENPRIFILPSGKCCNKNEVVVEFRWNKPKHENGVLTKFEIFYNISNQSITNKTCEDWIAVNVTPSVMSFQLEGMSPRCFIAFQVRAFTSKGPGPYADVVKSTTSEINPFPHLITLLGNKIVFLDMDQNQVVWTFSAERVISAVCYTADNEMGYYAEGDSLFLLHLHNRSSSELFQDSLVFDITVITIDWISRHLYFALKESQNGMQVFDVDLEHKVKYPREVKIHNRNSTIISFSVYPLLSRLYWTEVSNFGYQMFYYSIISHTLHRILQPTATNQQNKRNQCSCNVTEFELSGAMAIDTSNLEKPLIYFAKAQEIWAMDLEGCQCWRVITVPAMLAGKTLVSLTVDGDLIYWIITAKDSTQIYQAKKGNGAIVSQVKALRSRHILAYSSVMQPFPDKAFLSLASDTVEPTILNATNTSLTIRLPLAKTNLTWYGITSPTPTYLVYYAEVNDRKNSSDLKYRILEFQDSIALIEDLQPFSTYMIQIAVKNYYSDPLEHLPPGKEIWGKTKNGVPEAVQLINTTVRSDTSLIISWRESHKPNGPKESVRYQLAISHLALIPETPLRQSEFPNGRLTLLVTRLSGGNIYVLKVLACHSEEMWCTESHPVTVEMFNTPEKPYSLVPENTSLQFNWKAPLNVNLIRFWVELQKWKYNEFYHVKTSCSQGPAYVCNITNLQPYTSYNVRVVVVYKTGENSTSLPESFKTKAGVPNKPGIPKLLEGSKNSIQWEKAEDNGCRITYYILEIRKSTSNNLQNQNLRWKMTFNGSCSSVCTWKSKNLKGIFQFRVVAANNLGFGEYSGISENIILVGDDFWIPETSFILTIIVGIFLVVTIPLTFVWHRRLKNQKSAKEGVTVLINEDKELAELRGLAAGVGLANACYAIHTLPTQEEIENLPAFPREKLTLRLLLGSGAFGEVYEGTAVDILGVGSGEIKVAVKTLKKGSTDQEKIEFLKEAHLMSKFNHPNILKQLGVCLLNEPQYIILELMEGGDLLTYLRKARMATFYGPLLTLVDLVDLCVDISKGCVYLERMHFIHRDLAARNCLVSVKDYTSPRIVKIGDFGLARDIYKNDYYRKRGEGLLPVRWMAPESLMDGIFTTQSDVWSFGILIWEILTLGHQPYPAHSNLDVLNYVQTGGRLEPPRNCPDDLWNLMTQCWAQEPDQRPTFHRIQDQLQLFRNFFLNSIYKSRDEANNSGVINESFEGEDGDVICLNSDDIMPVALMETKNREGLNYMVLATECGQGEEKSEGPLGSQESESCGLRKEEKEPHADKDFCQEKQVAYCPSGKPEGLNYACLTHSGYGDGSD
Sequence of PRK2(h) (Q16513 whole entry): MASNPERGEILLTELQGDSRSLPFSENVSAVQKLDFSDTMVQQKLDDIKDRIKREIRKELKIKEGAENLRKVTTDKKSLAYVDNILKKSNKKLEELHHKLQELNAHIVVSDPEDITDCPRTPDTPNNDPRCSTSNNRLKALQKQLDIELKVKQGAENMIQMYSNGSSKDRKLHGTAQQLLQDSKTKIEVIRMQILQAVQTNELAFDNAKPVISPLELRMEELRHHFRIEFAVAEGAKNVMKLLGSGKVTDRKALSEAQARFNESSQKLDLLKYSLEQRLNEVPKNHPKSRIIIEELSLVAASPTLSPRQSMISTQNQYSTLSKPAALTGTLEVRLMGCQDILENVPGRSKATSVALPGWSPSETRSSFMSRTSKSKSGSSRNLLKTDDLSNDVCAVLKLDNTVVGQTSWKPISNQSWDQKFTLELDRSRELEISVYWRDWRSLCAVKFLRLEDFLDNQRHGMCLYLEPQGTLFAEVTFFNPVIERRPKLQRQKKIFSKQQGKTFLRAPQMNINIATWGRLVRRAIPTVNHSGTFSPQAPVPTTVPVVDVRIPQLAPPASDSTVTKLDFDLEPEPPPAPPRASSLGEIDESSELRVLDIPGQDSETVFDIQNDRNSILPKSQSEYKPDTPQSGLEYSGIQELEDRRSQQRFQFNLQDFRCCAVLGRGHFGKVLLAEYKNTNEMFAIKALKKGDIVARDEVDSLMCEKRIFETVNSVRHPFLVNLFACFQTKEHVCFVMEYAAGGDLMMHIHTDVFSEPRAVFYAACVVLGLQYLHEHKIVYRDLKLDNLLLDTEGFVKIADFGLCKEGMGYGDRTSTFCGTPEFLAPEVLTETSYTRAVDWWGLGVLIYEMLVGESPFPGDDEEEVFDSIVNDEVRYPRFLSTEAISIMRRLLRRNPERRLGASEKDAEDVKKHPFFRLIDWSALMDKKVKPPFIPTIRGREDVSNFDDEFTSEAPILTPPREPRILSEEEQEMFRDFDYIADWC
Sequence of Rsk3(h) (Q15349 whole entry): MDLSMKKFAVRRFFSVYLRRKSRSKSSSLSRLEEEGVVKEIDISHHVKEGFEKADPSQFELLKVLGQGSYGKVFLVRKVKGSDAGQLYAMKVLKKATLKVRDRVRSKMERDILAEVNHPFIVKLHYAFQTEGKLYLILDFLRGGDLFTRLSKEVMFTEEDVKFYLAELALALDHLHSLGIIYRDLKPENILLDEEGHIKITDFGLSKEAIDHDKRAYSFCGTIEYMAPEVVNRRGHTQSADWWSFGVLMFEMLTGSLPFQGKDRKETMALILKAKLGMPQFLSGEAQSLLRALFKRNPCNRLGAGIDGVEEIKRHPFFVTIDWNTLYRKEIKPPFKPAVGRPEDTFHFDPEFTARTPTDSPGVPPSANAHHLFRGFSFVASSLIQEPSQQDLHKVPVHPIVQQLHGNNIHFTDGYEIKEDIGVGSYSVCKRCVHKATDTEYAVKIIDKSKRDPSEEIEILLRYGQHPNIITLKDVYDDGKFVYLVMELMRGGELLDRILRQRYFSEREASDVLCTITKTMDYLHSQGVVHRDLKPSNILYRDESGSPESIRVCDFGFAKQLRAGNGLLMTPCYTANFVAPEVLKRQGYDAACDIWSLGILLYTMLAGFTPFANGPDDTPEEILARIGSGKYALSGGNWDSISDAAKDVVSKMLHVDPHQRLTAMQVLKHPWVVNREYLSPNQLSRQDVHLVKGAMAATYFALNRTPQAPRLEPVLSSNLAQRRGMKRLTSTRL
Sequence of PKCθ(h) (Q04759 whole entry): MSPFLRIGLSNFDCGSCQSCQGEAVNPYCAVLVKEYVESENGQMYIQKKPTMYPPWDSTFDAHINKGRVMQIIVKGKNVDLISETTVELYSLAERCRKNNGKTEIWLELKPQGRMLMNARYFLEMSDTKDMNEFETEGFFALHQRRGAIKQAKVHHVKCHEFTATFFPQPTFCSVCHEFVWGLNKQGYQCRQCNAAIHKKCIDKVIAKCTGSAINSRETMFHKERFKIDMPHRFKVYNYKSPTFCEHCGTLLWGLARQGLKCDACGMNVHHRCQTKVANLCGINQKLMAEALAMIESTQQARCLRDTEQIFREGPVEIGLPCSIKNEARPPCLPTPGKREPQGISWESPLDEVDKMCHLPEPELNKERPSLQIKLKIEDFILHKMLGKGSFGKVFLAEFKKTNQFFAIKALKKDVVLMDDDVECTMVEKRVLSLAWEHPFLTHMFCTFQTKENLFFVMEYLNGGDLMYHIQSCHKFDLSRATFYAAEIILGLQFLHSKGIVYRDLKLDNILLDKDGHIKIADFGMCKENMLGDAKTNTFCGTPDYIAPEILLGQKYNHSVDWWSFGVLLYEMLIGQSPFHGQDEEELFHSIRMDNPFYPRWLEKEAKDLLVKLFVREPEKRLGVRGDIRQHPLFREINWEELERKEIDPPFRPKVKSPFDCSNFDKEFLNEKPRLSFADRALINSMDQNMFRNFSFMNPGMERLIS
Sequence of JNK1α1(h) (P45983 1-384 isoform P45983-2): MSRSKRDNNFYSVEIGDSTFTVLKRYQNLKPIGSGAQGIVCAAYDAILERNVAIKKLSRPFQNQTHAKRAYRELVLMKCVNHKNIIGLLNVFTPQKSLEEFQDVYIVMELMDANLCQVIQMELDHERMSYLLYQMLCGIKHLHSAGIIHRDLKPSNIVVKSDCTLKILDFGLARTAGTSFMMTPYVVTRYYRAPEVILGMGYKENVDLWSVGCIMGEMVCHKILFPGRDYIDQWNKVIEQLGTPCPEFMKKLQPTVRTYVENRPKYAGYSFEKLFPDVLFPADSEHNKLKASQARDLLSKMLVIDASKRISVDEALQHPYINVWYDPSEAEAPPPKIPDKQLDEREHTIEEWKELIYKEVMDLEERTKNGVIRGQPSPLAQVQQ

| Activity at Protein Kinase Assays (% of control), CHK1(h) [1] | Activity at Protein Kinase Assays (% of control), CK1δ(h) [2] | Activity at Protein Kinase Assays (% of control), JNK1α1(h) [3] | Activity at Protein Kinase Assays (% of control), PDGFRα(h) [4] | Activity at Protein Kinase Assays (% of control), PRK2(h) [5] | Activity at Protein Kinase Assays (% of control), CHK2(h) [6] | Activity at Protein Kinase Assays (% of control), EGFR(h) [7] | Activity at Protein Kinase Assays (% of control), Abl(h) [8] | Activity at Protein Kinase Assays (% of control), Rsk3(h) [9] | Activity at Protein Kinase Assays (% of control), PKCζ(h) [10] | Activity at Protein Kinase Assays (% of control), Fyn(h) [11] | Activity at Protein Kinase Assays (% of control), PKCθ(h) [12] | Activity at Protein Kinase Assays (% of control), Ros(h) [13] | Activity at Protein Kinase Assays (% of control), PKCγ(h) [14] | Activity at Protein Kinase Assays (% of control), Lyn(m) [15] | Activity at Protein Kinase Assays (% of control), cSRC(h) [16] | Activity at Protein Kinase Assays (% of control), CDK5/p35(h) [17] | SMILES |
| --- | --- | --- | --- | --- | --- | --- | --- | --- | --- | --- | --- | --- | --- | --- | --- | --- | --- |
| 110 % of control | 112 % of control | 108 % of control | 126 % of control | 110 % of control | 84 % of control | 108 % of control | 107 % of control | 5 % of control | 99 % of control | 106 % of control | 29 % of control | 117 % of control | 99 % of control | 99 % of control | 97 % of control | 99 % of control | O=C1NC(=O)C2=C1c1cn(c3ccccc13)CCCc1cc(nc(N3CCCC3)c1)CCCn1cc2c2ccccc21 [Cpd 6, 20-pyrrolidin-1-yl-4,14,19,26-tetraazaheptacyclo[24.6.1.1^7,14.1^18,22.0^2,6.0^8,13.0^27,32]pentatriaconta-1(33),2(6),7(35),8,10,12,18(34),19,21,27,29,31-dodecaene-3,5-dione] |
| 106 % of control | 109 % of control | 104 % of control | 113 % of control | 126 % of control | 91 % of control | 104 % of control | 108 % of control | 25 % of control | 116 % of control | 103 % of control | 33 % of control | 105 % of control | 102 % of control | 104 % of control | 113 % of control | 104 % of control | O=C1NC(=O)C2=C1c1cn(c3ccccc13)CCCc1ccc(c(N3CCCC3)n1)CCCn1cc2c2ccccc21 [Cpd 7, 31-pyrrolidin-1-yl-5,15,25,30-tetraazaheptacyclo[27.2.2.1^5,12.1^18,25.0^6,11.0^13,17.0^19,24]pentatriaconta-1(31),6,8,10,12(35),13(17),18(34),19,21,23,29,32-dodecaene-14,16-dione] |
| 101 % of control | 111 % of control | 105 % of control | 119 % of control | 113 % of control | 94 % of control | 96 % of control | 98 % of control | 5 % of control | 105 % of control | 106 % of control | 27 % of control | 108 % of control | 107 % of control | 102 % of control | 105 % of control | 105 % of control | CN(C)c1cc2cc(n1)CCCn1cc(c3ccccc31)C1=C(C(=O)NC1=O)c1cn(c3ccccc13)CCC2 [Cpd 2, 20-(dimethylamino)-4,14,19,26-tetraazaheptacyclo[24.6.1.1^7,14.1^18,22.0^2,6.0^8,13.0^27,32]pentatriaconta-1(33),2(6),7(35),8,10,12,18(34),19,21,27,29,31-dodecaene-3,5-dione] |
| 105 % of control | 107 % of control | 102 % of control | 107 % of control | 106 % of control | 91 % of control | 94 % of control | 105 % of control | 33 % of control | 98 % of control | 103 % of control | 21 % of control | 79 % of control | 91 % of control | 90 % of control | 81 % of control | 99 % of control | CN(C)c1nc2ccc1CCCCn1cc(c3ccccc31)C1=C(C(=O)NC1=O)c1cn(c3ccccc13)CCC2 [Cpd 1, 31-(dimethylamino)-5,15,25,32-tetraazaheptacyclo[28.2.2.1^5,12.1^18,25.0^6,11.0^13,17.0^19,24]hexatriaconta-1(32),6,8,10,12(36),13(17),18(35),19,21,23,30,33-dodecaene-14,16-dione] |

Reference: patent publication US7759331B2, “Pyridine-containing macroheterococylic compounds as kinase inhibitors” (Janssen Pharmaceutica NV, priority 2006, dated 2010)
